From the supplement of paper PMC11061612

Columns and labels:
Experiment in all cases: combination Emax (second highest fraction inhibited in the dose matrix, 72 h); higher = more inhibition; extreme values may be limits of the assay
[1] = system: CFPAC-1 (Pancreatic Carcinoma)
Method in brief: (§1)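 Bliss excess equals the observed combination effect minus the expected value EA + EB − EA·EB, where EA and EB are the effects of each agent alone. Combination Emax is the second-highest inhibition within the matrix. Inhibition was scaled from CellTiter-Glo 2.0 luminescence, with 0 set by vehicle wells and 1 by blank wells, after 72 hours of two-drug dosing of cells plated in 1536-well plates.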

[2] = system: COR-L23 (Non-Small Cell Lung Carcinoma)
Method in brief: as §1

[3] = system: COR-L95 (Small Cell Lung Carcinoma)
Method in brief: as §1

[4] = system: HPAC (Pancreatic Carcinoma)
Method in brief: as §1

[5] = system: HT-29 (Colorectal Carcinoma)
Method in brief: as §1

[6] = system: IHH-4 (Thyroid Gland Carcinoma)
Method in brief: as §1

[7] = system: KM-H2 (Hodgkin's Lymphoma)
Method in brief: as §1

[8] = system: MDA-MB-157 (Breast Carcinoma)
Method in brief: as §1

[9] = system: NCI-H1694 (Small Cell Lung Carcinoma)
Method in brief: as §1

[10] = system: NCI-H1781 (Lung Adenocarcinoma)
Method in brief: as §1

NCI-H2369 (Mesothelioma) = system: NCI-H2369 (Mesothelioma)
Method in brief: as §1

[11] = system: OCI-AML2 (Acute Myeloid Leukemia)
Method in brief: as §1

RH-1 (Ewing's Sarcoma) = system: RH-1 (Ewing's Sarcoma)
Method in brief: as §1

[12] = system: SNU-C5 (Colorectal Carcinoma)
Method in brief: as §1

[13] = system: SW1783 (Low Grade Glioma)
Method in brief: as §1

[14] = system: SW1990 (Pancreatic Carcinoma)
Method in brief: as §1

[15] = system: SW756 (Cervical Carcinoma)
Method in brief: as §1

[16] = system: SW780 (Bladder Carcinoma)
Method in brief: as §1

[17] = system: TGBC24TKB (Biliary Tract Carcinoma)
Method in brief: as §1

[18] = system: U-266 (Plasma Cell Myeloma)
Method in brief: as §1

combination Emax [7] | SMILES | combination Emax [1] | combination Emax [2] | combination Emax [3] | combination Emax [4] | combination Emax [5] | combination Emax [6] | combination Emax [8] | combination Emax [9] | combination Emax [10] | combination Emax (NCI-H2369 (Mesothelioma)) | combination Emax [11] | combination Emax (RH-1 (Ewing's Sarcoma)) | combination Emax [12] | combination Emax [13] | combination Emax [14] | combination Emax [15] | combination Emax [16] | combination Emax [17] | combination Emax [18]
0.961 | C=CCn1c(=O)c2cnc(Nc3ccc(N4CCN(C)CC4)cc3)nc2n1-c1cccc(C(C)(C)O)n1 [AZD1775] + C[C@@H]1COCCN1C2=NC(=NC(=C2)C3(CC3)[S@](=N)(=O)C)C4=C5C=CNC5=NC=C4 [AZD6738] (first compound max 1 µM, partner max 10 µM) | 0.536 | 0.595 | 0.737 | 0.705 | 0.858 | 0.886 | 0.947 | 0.883 | 0.65 | 0.336 | 1 | 1 | 0.794 | 0.41 | 0.623 | 0.425 | 0.246 | 0.832 | 0.707
0.879 | CC1(C)CCC(CN2CCN(c3ccc(C(=O)NS(=O)(=O)c4ccc(NCC5CCOCC5)c([N+](=O)[O-])c4)c(Oc4cnc5[nH]ccc5c4)c3)CC2)=C(c2ccc(Cl)cc2)C1 [Venetoclax] + C[C@@H]1COCCN1C2=NC(=NC(=C2)C3(CC3)[S@](=N)(=O)C)C4=C5C=CNC5=NC=C4 [AZD6738] (first compound max 1 µM, 7x7, partner max 10 µM) | 0.554 | 0.585 | 0.838 | 0.611 | 0.865 | 0.691 | 0.886 | 0.822 | 0.451 | 0.233 | 1 | 0.959 | 0.784 | 0.503 | 0.666 | 0.325 | 0.22 | 0.705 | 0.614
0.161 | CC1(C)CCC(CN2CCN(c3ccc(C(=O)NS(=O)(=O)c4ccc(NCC5CCOCC5)c([N+](=O)[O-])c4)c(Oc4cnc5[nH]ccc5c4)c3)CC2)=C(c2ccc(Cl)cc2)C1 [Venetoclax] + Cc1cc2ncnn2cc1Nc1ncc2c(n1)n(C1CCOCC1)c(=O)n2C [AZD7648] (first compound max 1 µM, 7x7, partner max 10 µM) | 0.275 | 0.164 | 0.607 | 0.288 | 0.205 | 0.259 | 0.571 | 0.223 | 0.329 | 0.164 | 1 | 0.242 | 0.261 | 0.237 | 0.572 | 0.195 | 0.163 | 0.332 | 0.511
0.305 | CC1(C)CCC(CN2CCN(c3ccc(C(=O)NS(=O)(=O)c4ccc(NCC5CCOCC5)c([N+](=O)[O-])c4)c(Oc4cnc5[nH]ccc5c4)c3)CC2)=C(c2ccc(Cl)cc2)C1 [Venetoclax] + CCN(CCO)CCCOc1ccc2c(Nc3cc(CC(=O)Nc4cccc(F)c4)[nH]n3)ncnc2c1 [AZD2811] (first compound max 1 µM, 7x7, partner max 1 µM) | 0.259 | 0.172 | 0.743 | 0.361 | 0.214 | 0.389 | 0.56 | 0.485 | 0.577 | 0.173 | 1 | 0.951 | 0.19 | 0.333 | 0.625 | 0.158 | 0.193 | 0.525 | 0.614
0.209 | Cc1cc2ncnn2cc1Nc1ncc2c(n1)n(C1CCOCC1)c(=O)n2C [AZD7648] + CCN(CCO)CCCOc1ccc2c(Nc3cc(CC(=O)Nc4cccc(F)c4)[nH]n3)ncnc2c1 [AZD2811] (first compound max 10 µM, 7x7, partner max 1 µM) | 0.281 | 0.0476 | 0.256 | 0.155 | 0.265 | 0.454 | 0.234 | 0.273 | 0.671 | 0.235 | 0.702 | 0.952 | 0.295 | 0.293 | 0.201 | 0.108 | 0.29 | 0.566 | 0.331
0.351 | COc1nnc2ccc(N3CCC(c4ccc(OCCN5CCN(C)C(=O)[C@H]5C)cc4)CC3)nn12 [AZD5153] + CCN(CCO)CCCOc1ccc2c(Nc3cc(CC(=O)Nc4cccc(F)c4)[nH]n3)ncnc2c1 [AZD2811] (first compound max 1 µM, 7x7, partner max 1 µM) | 0.394 | 0.354 | 0.308 | 0.649 | 0.72 | 0.682 | 0.54 | 0.364 | 0.517 | 0.344 | 1 | 0.995 | 0.517 | 0.328 | 0.118 | 0.386 | 0.339 | 0.765 | 0.279
